Results: patent publication US20210369583A1, “COMPOSITIONS FOR PROVIDING SKIN CARE BENEFITS AND METHODS OF USE” (Danisco US Inc., priority 2018, published 2021)
Marks after values point to notes of the source that are not given here.

Tests used:
Assay type in all cases: cell-based
[1] = tested on: Reconstructed Human Epidermis (RHE); assay: Caffein diffusion test on Reconstituted Human Epidermis (RHE); conditions: for caffein diffusion through RHE: systemic treatment
Experimental: By measuring the amount of […] […] The epidermis used was a Reconstructed Human Epidermis, called “RHE”, 0-day-old, batch no 01015-444, placed in culture conditions 37° C., 5% CO2. The assay medium was the Bioalternatives maintenance medium. RHE at Day 0 (when placed at the air/liquid interface) were placed in assay medium containing or not (control) the compounds, the combination or the reference (vitamin C at 200 μg/ml). This is referred to as a systemic application, to be differentiated from a topical application. RHE were then incubated for 7 days with treatment renewal at Day 3 and Day 5. All experimental conditions were performed in n=3. At the end of incubation (Day 7), radioactive […] ([^14[…] applied on the surface of each epidermis. The radioactivity contained in subnatants was measured by liquid scintillation after 30 minutes, 1, 2, 3, 4, 5, 6, 7 and 8 hours of incubation. The barrier function is calculated according to the below formula:

[2] = tested on: human living skin explant; assay: Cell viability of human living skin explants (UV study); conditions: day 4
Experimental: (§1) human skin explants of an average diameter of 12 mm (±1 mm) were prepared on an abdoplasty coming from a person). The explants were kept in survival in BEM culture medium at 37° C. in a humid, 5%-CO2 atmosphere.
(§2) On day 0 (D0), day 1, day 2 and day 3 (3 hours before irradiation), the tested products were applied topically on surface of skin explants at the rate of 2 mg/cm^2, twice a day for D1 and D2 and once on DO and D3. […] The medium was half renewed (1 ml per well) on day 2.
(§3) On D3, the culture media of all the batches was replaced by HBSS solution (Hank's Balanced Saline Solution; 1 ml per explant). The batches “UV” were irradiated by UVA+ UVB using a UV simulator Vibert Lourmat RMX 3W with a dose of 18 J/cm2 of UVA (4 MED, minimal erythemal dose) and 0.3 J/cm2 of UVB (2 MED). The unirradiated batches were kept in HBSS in the dark. At the end of the irradiation the explants were put back in 2 mL of BEM medium.
(§4) After fixation for 24 hours in buffered formalin, the samples were dehydrated and impregnated in paraffin using a Leica PEARL dehydration automat. The samples were embedded using a Leica EG 1160 embedding station. 5-μm-thick sections were made using a Leica RM 2125 Minot-type microtome, and the sections were mounted on Superfrost® histological glass slides. The frozen samples were cut into 7-μm-thick sections using a Leica CM 3050 cryostat. Sections were then mounted on Superfrost® plus silanized glass slides. The microscopical observations were realized using a Leica DMLB or Olympus BX43 microscope. Pictures were digitized with a numeric DP72 Olympus camera with CellD storing software.

[3] = tested on: human living skin explant; assay: Immunostaining of carbonylated proteins (FTZ) on human living skin explants; conditions: UV irradiated
Experimental: as §1, §2, §3, §4
Protein carbonylation is a type of protein oxidation that can be promoted by reactive oxygen species (ROS), generated by UV exposure. FTZ marker assay was conducted by immunostaining in the living epidermis of human skin explant as follows: Carbonylated proteins were stained on frozen sections with the anti-carbonylated proteins probe (fluorescein-5-thiosemicarbazid-FTZ) (Lifetechnologies, Ref. F-121) diluted at 0.5 μM in MES-Na+ and incubated for 30 minutes in the dark and at room temperature. The staining was observed by epifluorescence and assessed by microscopical observations. Batches analyzed were T, TUV, P1UV, P2UV, P3UV at day 4 also referred to as TJ4, TUVJ4, P1UVJ4, P2UVJ4, P3UVJ4

[4] = tested on: human living skin explant; assay: TUNEL assay (UV-induced DNA damage) on human living skin explants
Experimental: as §1, §2, §3, §4
DNA oxidization is a type of damage that can be promoted by reactive oxygen species (ROS), generated by UV exposure. […] The staining was assessed by microscopical observation. Batches analyzed were T, TUV, P1UV, P2UV, P3UV at day 4 also referred to as TJ4, TUVJ4, P1UVJ4, P2UVJ4, P3UVJ4 (T=Control batch non treated non irradiated; TJ4=T at Day 4 (D4); TUV: control batch non treated UV irradiated; TUVJ4=[…] at Day 4; P1J4: product A 4% non irradiated at D4; P2J4: product A 2% non irradiated at D4; P3J4: product A 1% non irradiated at D4; P1UV: product A 4% UV irradiated; P1UVJ4: product A 4% UV irradiated at D4 P2UV: product A 2% UV irradiated; P2UVJ4: product A 2% UV irradiated at D4; P3UV: product A 1% UV irradiated; P3UVJ4: product A 1% UV irradiated at D4

[5] = tested on: living human skin explants; assay: Biochemical assay of MDA (lipid peroxidation) on living human skin explants exposed to pollutants
Experimental: Product A (Table 11) was diluted in water to obtain the following products at concentrations: product P1=A at 4%, product P2=A at 2% and product P3=A at 1%.
59 human skin explants of an average diameter of 14 mm (±1 mm) were prepared on an abdoplasty coming from a person. The explants were kept in survival in BEM culture medium at 37° C. in a humid, 5%-CO2 atmosphere.
The tested products were topically applied on the basis of 2 μl per cm^2 and spread using a small spatula twice a day (morning and evening) on day 0, 1, 2, 3 and 4.
On D4, the explants of the batches ML and PML were placed on the 3D grid with 900 μl of HBSS and placed into the PolluBox® system.
3 mL of the solution <<ML>> (supplemented with 150 μl/ml of NaCl 0.9%) were exposed by vaporization for 1 hour and half, as shown in the figure below.
The MDA assay was realized with an enhanced method of the TBARs (Thiobarbituric Acid Reactive Species) assay. The MDA was assayed in HBSS medium by addition of TBARs solution (thiobarbituric acid, hydrochloric acid and tricholoroacetic acid) and placed in a water bath (80° C. for 15 minutes). A lot of substances (like glucose) which are not related with lipoperoxidation, react with thiobarbituric acid (ThioBarbituric Acid Reagents=TBARS), so to enhance the specificity of the assay, the MDA was extracted by a liquid/liquid extraction with butanol. The MDA in butanol was measured in spectrofluorimetry (excitation: 515 nm, emission: 550 nm) using a Tecan Infinite M200 Pro microplate reader. Using this assay, MDA contained in the culture medium BEMc on […] was measured for the 4 explants per batch. The MDA concentration was expressed in pmol of MDA/ml of the medium. Concerned batches: all batches on day 5, 4 explants per batch.
The average of the blank batch TJ5 was calculated (154.0 nmol/L). Then, for each explant of MLJ5, this average value was subtracted from […]. That corresponds to calculating the delta (increase) of MDA induced by ML for each explant compared to the average of the batch without ML, it is ΔML.
These average deltas were then compared to the average delta of MDA induction without treatment (ΔML).

Question: C[N+](C)(C)CC(=O)O [betaine] was tested. Which “Barrier function % Control” value ([1]; 0.5 hrs, 10 mg/ml) did it give?
Answer: Its value is 97%.

Question: And the “Mean [14C]-caffein (cpm)” value ([1]; 0.5 hrs, 10 mg/ml)?
Answer: The value was 20507 cpm.

Question: What about the “[14C]-caffein % Control” value ([1]; 0.5 hrs, 10 mg/ml) of the same compound?
Answer: The value was 104%.

Question: What about the “Barrier function % Control” value ([1]; 1 hrs, 10 mg/ml) of the same compound?
Answer: Its value is 91%.

Question: And the “Mean [14C]-caffein (cpm)” value ([1]; 1 hrs, 10 mg/ml)?
Answer: The value was 50356 cpm.

Question: What about the “[14C]-caffein % Control” value ([1]; 1 hrs, 10 mg/ml) of the same compound?
Answer: Its value is 110%.

Question: And the “Barrier function % Control” value ([1]; 2 hrs, 10 mg/ml)?
Answer: Its value is 85%.

Question: What about the “Mean [14C]-caffein (cpm)” value ([1]; 2 hrs, 10 mg/ml) of the same compound?
Answer: The value was 117502 cpm.

Question: And the “[14C]-caffein % Control” value ([1]; 2 hrs, 10 mg/ml)?
Answer: The value was 117%.

Question: And the “Barrier function % Control” value ([1]; 3 hrs, 10 mg/ml)?
Answer: The value was 87%.

Question: What about the “Mean [14C]-caffein (cpm)” value ([1]; 3 hrs, 10 mg/ml) of the same compound?
Answer: The value was 156579 cpm.

Question: What about the “[14C]-caffein % Control” value ([1]; 3 hrs, 10 mg/ml) of the same compound?
Answer: The value was 114%.

Question: And the “Barrier function % Control” value ([1]; 4 hrs, 10 mg/ml)?
Answer: The value was 91%.

Question: And the “Mean [14C]-caffein (cpm)” value ([1]; 4 hrs, 10 mg/ml)?
Answer: The value was 173278 cpm.

Question: And the “[14C]-caffein % Control” value ([1]; 4 hrs, 10 mg/ml)?
Answer: The value was 110%.

Question: And the “Barrier function % Control” value ([1]; 5 hrs, 10 mg/ml)?
Answer: Its value is 92%.

Question: And the “Mean [14C]-caffein (cpm)” value ([1]; 5 hrs, 10 mg/ml)?
Answer: The value was 186588 cpm.

Question: What about the “[14C]-caffein % Control” value ([1]; 5 hrs, 10 mg/ml) of the same compound?
Answer: Its value is 108%.

Question: And the “Barrier function % Control” value ([1]; 6 hrs, 10 mg/ml)?
Answer: The value was 93%.

Question: And the “Mean [14C]-caffein (cpm)” value ([1]; 6 hrs, 10 mg/ml)?
Answer: Its value is 193499 cpm.

Question: And the “[14C]-caffein % Control” value ([1]; 6 hrs, 10 mg/ml)?
Answer: Its value is 107%.

Question: And the “Barrier function % Control” value ([1]; 7 hrs, 10 mg/ml)?
Answer: Its value is 96%.

Question: What about the “Mean [14C]-caffein (cpm)” value ([1]; 7 hrs, 10 mg/ml) of the same compound?
Answer: Its value is 196233 cpm.

Question: And the “[14C]-caffein % Control” value ([1]; 7 hrs, 10 mg/ml)?
Answer: Its value is 104%.

Question: And the “Barrier function % Control” value ([1]; 8 hrs, 10 mg/ml)?
Answer: Its value is 99%.

Question: What about the “Mean [14C]-caffein (cpm)” value ([1]; 8 hrs, 10 mg/ml) of the same compound?
Answer: The value was 195439 cpm.

Question: And the “[14C]-caffein % Control” value ([1]; 8 hrs, 10 mg/ml)?
Answer: The value was 101%.

Question: And the “caffein diffusion through RHE” value ([1]; 3 mg/ml)?
Answer: Its value is “induced a decrease of caffein diffusion through the RHE only after 30 minutes”.

Question: What about the “caffein diffusion through RHE” value ([1]; 10 mg/ml) of the same compound?
Answer: The value was “No inhibitory effect”.

Question: With O=C(O)[C@@H]1CCCN1 [Combination P5, L-Proline] as the compound, how does the “Cell Viability, variation vs TUVJ4” value ([2]; UV irradiated) read?
Answer: The value was “↔ (indicates no variation)”.

Question: What about the “Cell Viability, variation vs TJ4” value ([2]; non irradiated) of the same compound?
Answer: The value was “↔ (indicates no variation)”.

Question: What about the “effect on UV-induced carbonylated proteins” value [3] of the same compound?
Answer: The value was “slightly inhibits the formation of carbonylated proteins”.

Question: What about the “activity against UV-induced DNA damage” value ([4]; UV irradiated) of the same compound?
Answer: The value was “totally inhibits the increase of DNA damage”.

Question: What about the “DNA damage (TUNEL), variation vs TJ4” value ([4]; non irradiated, day 4) of the same compound?
Answer: The value was “↔ (indicates no variation)”.

Question: What about the “MDA, variation ΔPML vs ΔML” value ([5]; MDA induction by pollutants, day 5) of the same compound?
Answer: The value was −48%*.

Question: What about the “reduction of the increase of MDA” value ([5]; after pollutant exposure (ΔPML vs ΔML)) of the same compound?
Answer: Its value is 48%.

Question: What about the “MDA, variation PML vs ML” value ([5]; after pollutants exposure, day 5) of the same compound?
Answer: The value was −14% #.

Question: O=C1O[C@H]([C@@H](O)CO)C(O)=C1O [vitamin C] was tested. Which “caffein diffusion through RHE” value ([1]; 200 μg/ml) did it give?
Answer: The value was “decreased significantly this diffusion”.
